Results taken from patent publication US6331555A, “Treatment of platelet derived growth factor related disorders such as cancers” (priority 1999, dated 2001).
Several values for one entry are separate records, joined by “and”; a condition that tells them apart may be missing. Equal values may be shown once. Read-outs that look alike come from different tables or passages of the source. Blank lines part the entries; values can stand above or below the compound they belong to.

Experiments:
U1242 cells [1] = assay: Cytotoxicity in U1242 cells, MTT; assay type: cell-based, human; details: Homo sapiens, read-out: CYTOXICITY MTT U1242 LD50; heading: CYTOXICITY MTT U1242 LD50
Protocol: (§1) The cytotoxicity of each drug was also determined. The cells were plated as described above. Following incubation with drug, cell survival was measured by an MTT assay as described by Mossman J. Immunol. Methods 65:55-63 (1983), or by measuring the amount of LDH released (Korzeniewski and Callewaert, J. Immunol. Methods 64:313 (1983); Decker and Lohmann-Matthes, J. Immunol. Methods 115:61 (1988) .

PDGF-R (U1242) = molecular target: T1, PDGF-R (U1242) (Homo sapiens, UniProt P09619); assay: U1242 kinase (PDGF-R activity); assay type: cell-based
T1 construct: U1242 (PDGF-β receptor); host or cells: U1242 MG glioma cells
Protocol: (§2) For western blotting, cells were plated in 2 mL growth medium into 6-well dishes (500,000 cells per well) and allowed to attach overnight. […] The plates were then incubated overnight at 37° C., ambient CO2. […] After a 7 min incubation at room temperature with ligand, the plates were put on ice and washed three times with 1 mL ice-cold PBS plus 1 mM orthovanadate. Lysis was achieved by pipetting cells in 0.5 mL of buffer containing 50 mM Tris, pH 7.4, 10% glycerol, 1% NP-40, 2 mM EDTA, 1 mM sodium vanadate (Na3 VO4), 10 mM pyrophosphate, 1 mM PMSF, […]. A 300 μL aliquot of each lysate was immediately added to 100 μL 4×Laemmli sample buffer ([…] Tris pH 6.9, 20% glycerol, 7% SDS, 5 mM EDTA, 5% β-mercaptoethanol) containing phosphatase inhibitors, 2 mM Na3 VO4 and 10 mM pyrophosphate. Samples were boiled for 5 min, frozen in dry ice-ethanol, and stored at -80° C. […] The integrity of the protein-to-membrane transfer was determined by staining with 1% Ponceau S in 5% acetic acid for 5 min. After destaining in several distilled water rinses, the membrane was soaked overnight in blocking buffer containing 5% milk in Tris-buffered saline, 0.05% Tween 20. Phosphotyresine was detected by incubating the membrane (1 hr at room temperature) with an anti-phosphotyosine antiserum diluted in blocking buffer at 1:3000. […] The antibodies were visualized using ECL reagent from Amersham and by exposure to Fuji RX film.
(§3) For ELISA assays, cells were grown to 80-90% confluency in growth medium and seeded in 96-well tissue culture plates in 0.5% serum at 25,000 to 30,000 cells per well. After overnight incubation in 0.5% serum-containingmedium, cells were changed to serum-free medium and treated with test compound for 2 hr in a 5% CO2, 37° C. incubator. […] Lysates were incubated with shaking for 1 hr at room temperature. The plates were washed with TBST four times and then incubated with polyclonol anti-phosphotyrosine antibody at room temperature for 30 min. Excess anti-phosphotyrosine antibody was removed by rinsing the plate with TBST four times. Goat anti-rabbit IgG antibody was added to the ELISA plate for 30 min at room temperature followed by rinsing with TBST four more times.
PDGF-R activity, C6 SRB, and in vivo efficacy were measured using the procedures described in the appendices above.

[2] = C6 glioma SC xenograft in mice; assay type: in vivo; details: rat, in vivo, ip
Protocol: (§4) Cell lines were grown in appropriate medium (see Appendix 1). Cells were harvested at or near confluency with 0.05% Trypsin-EDTA and pelleted at 450×g for 10 min. Pellets were resuspended in sterile PBS or media (without FBS) to a particular concentration and the cells were implanted into the hindflank of mice. Tumor growth was measured over 3 to 6 weeks using venier calipers. Tumor volumes were calculated as a product of length×width×height unless otherwise indicated. P values were calculated using the Students' t-test.
(§5) C6 and SKOV-3(T) cells were grown in culture, as described in "cell growth" above, and implanted into the hind flank of a female Balb/c nu/nu mouse at 3×10^6 cells (for C6 experiments), or 1×10^7 cells (for SKOV-3 experiments) in […] of PBS on Day 0. U87MG, U118MG or U373MG human glioblastoma cells (obtained from the ATCC), or A4312 were also implanted into athymic mice. […] Tumors were measured using venier calipers and tumor volume was calculated as a product of tumor length, width, and height.

C6 glioma cells = assay: C6 glioma SC xenograft in mice; assay type: in vivo
Protocol: as §4, §5

C6 cells = assay: C6 SRB growth assay; assay type: cell-based, rat; details: Rattus norvegicus, C6; read-out: C6 SRB IC50
PDGFR [3] = molecular target: PDGFR (Homo sapiens, UniProt P09619); assay: PDGF-stimulated receptor phosphorylation in U1242 cells, ELISA; assay type: cell-based; set-up: U1242 (PDGF-β receptor); host or cells: U1242 MG glioma cells; details: 100 ng/ml PDGF-BB; read-out: ELISA P-TYR U1242 IC50
Protocol: as §3, with “incubator. Cells were then stimulated with ligand for 5-10 min followed by lysis with HNTG (20 mM Hepes, 150 mM NaCl, 10% glycerol, 5 mM EDTA, 5 mM Na3 VO4 0.2% Triton X-100, and 2 mM NaPyr).” for “incubator.”
U1242 MG cells were plated in 96-well plates at a concentration of 5×10^4 cells/well in cultured media containing 0.5% FBS. The cells were incubated for 24 hours. The cells were then treated with a particular compound for 2 hours followed by the addition of 100 ng/ml PDGF-BB and incubation for 10 minutes.
Cells were lysed in 0.2 M Hepes, 0.15 M NaCl, 10% V/V glycerol, 0.04% Triton X-100, 5 mM EDTA, 5 MM Na^+ vanadate and […] Na^+ pyrophosphate. Cell lysates were then added to an ELISA plate coated with an anti-PDGF receptor antibody (Genzyme). ELISA plates were coated at […] of antibody/well in […] of PBS for 18 hours at 4° C. prior to the addition of the lysate.
The lysate was incubated in the coated plates for 1 hour and then washed four times in TBST (35 mM Tris-HCl pH 7.0, 0.15 M NaCl, 0.1% Triton X-100). Anti-phosphotyrosine antibody ([…] in PBS) was added and the mixture was incubated for 30 minutes at room temperature. The wells were then washed four times in TBST, a secondary antibody conjugated to POD (TAGO) was added to each well, and the treated wells were incubated for 30 minutes at room temperature. The wells were then washed four times in TBST, ABTS/H2 O2 solution was added to each well and the wells were incubated for two minutes. Absorbance was then measured at 410 nm.

LD10 = details: in vivo
PDGFR [4] = assay: Receptor tyrosine kinase inhibition, PDGFR; assay type: cell-based; details: W = done in Western assay; read-out: PDGFR IC50 (W)
Protocol: as §2, §3
The ability of different compound to inhibit different receptor tyrosine kinases was tested.

U1242 cells [5] = assay: Cytotoxicity in U1242 cells, LDH; assay type: cell-based; details: Homo sapiens, read-out: CYTOXICITY LDH U1242 LD50; heading: CYTOXICITY LDH U1242 LD50
Protocol: as §1

A431 cells = details: cited from earlier work
[6] = test system: Platelet-derived growth factor-dependent tyrosine phosphorylation; details: intact cells; cited from earlier work
PDGF receptor = details: cited from earlier work
PDGF α-receptor = details: high concentrations; cited from earlier work
PDGF β-receptor = details: cited from earlier work
[7] = W = done in Western assay, read-out: U1242 KINASE IC50 (W)

T1 sequence (P09619 33-1106): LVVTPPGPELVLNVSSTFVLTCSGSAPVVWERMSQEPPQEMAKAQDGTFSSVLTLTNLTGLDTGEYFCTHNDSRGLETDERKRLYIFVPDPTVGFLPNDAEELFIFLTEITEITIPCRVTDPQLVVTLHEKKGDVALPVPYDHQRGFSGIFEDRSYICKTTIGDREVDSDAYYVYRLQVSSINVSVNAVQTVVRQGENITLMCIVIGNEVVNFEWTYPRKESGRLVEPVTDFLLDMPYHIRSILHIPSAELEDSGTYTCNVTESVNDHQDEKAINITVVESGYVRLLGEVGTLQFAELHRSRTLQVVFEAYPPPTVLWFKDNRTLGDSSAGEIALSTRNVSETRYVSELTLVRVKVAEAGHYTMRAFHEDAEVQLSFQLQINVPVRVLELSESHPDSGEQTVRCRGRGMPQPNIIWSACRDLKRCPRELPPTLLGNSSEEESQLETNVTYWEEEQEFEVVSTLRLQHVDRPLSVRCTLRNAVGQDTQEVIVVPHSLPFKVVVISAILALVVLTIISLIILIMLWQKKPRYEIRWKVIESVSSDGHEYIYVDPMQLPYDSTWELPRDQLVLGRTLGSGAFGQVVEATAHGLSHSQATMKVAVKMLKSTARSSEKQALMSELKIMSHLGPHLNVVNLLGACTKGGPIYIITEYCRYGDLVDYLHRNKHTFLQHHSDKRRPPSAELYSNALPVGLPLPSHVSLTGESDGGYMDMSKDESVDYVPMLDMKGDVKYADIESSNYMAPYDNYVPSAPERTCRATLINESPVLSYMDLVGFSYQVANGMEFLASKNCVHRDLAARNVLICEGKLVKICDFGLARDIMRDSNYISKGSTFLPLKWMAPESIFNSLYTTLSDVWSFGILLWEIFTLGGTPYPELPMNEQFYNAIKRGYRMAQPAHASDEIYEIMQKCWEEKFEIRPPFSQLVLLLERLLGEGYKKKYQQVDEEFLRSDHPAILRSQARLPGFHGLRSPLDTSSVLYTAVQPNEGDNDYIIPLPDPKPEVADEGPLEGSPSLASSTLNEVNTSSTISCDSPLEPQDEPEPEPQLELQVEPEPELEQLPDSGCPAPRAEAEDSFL
Chain of PDGFR (Homo sapiens, UniProt P09619) (P09619 33-1106): as above

Compound: O=C(NN=Cc1ccc(O)c(O)c1)C(=O)Nc1cccc([N+](=O)[O-])c1 [Compound E15]
- CC50 (U1242 cells [1]): > 100 µM
- IC50 (PDGF-R (U1242); [7]): 5 µM and 10 µM
- IC50 (PDGF-R (U1242); read-out: U1242 KINASE IC50): > 50 µM
- mortality at 336 h ([2]; 15 mg/kg): 0%
- mortality at 360 h ([2]; 50 mg/kg): 12.5%
- mortality at 192 h ([2]; 100 mg/kg): 100%
- inhibition in vivo at 15 mg/kg (C6 glioma cells; Rattus norvegicus, C6 glioma, sc, at 15 mg/kg, read-out: C6 in vivo EFFICACY): 66%
- inhibition in vivo at 50 mg/kg (C6 glioma cells; Rattus norvegicus, C6 glioma, sc, at 50 mg/kg, read-out: C6 in vivo EFFICACY): 58%
- inhibition in vivo at 100 mg/kg (C6 glioma cells; Rattus norvegicus, C6 glioma, sc, at 100 mg/kg, read-out: C6 in vivo EFFICACY): 0%
- IC50 (C6 cells): 4.4 µM
- IC50 (PDGFR [3]): 5 µM
- LD10 (LD10): > 400 mg/kg

- IC50 (PDGFR [3]): 35 µM
Compound: N#CC(C(=O)Nc1ccc(C(F)(F)F)cc1)=C(O)c1cccc(Oc2ccccc2)c1 [Compound B16, 2-Propenamide, 2-cyano-3-hydroxy-3-((3-phenoxy)phenyl)-N-[(4-trifluoromethyl)phenyl]]
- CC50 (U1242 cells [1]): 50 µM

- IC50 (PDGFR [3]): 15 µM
- IC50 (PDGFR [4]): 20 µM
Compound: COc1cc2nc(Cl)c(-c3ccccc3)cc2c(OC)c1OC [Compound G11]
- CC50 (U1242 cells [5]): 90 µM

Compound: CC(O)=C(C#N)C(=O)Nc1ccc(C(F)(F)F)cc1 [A77 1726]
- growth of A431 cells (A431 cells): inhibited growth of A431 cells
- Platelet-derived growth factor-dependent tyrosine phosphorylation [6]: inhibited by A77 1726 in intact cells at concentrations similar to EGF-dependent phosphorylation

Compound: Cc1ccc(C(=O)Nc2ccc(S(=O)(=O)O)c3cc(S(=O)(=O)O)cc(S(=O)(=O)O)c23)cc1NC(=O)c1cccc(NC(=O)Nc2cccc(C(=O)Nc3cc(C(=O)Nc4ccc(S(=O)(=O)O)c5cc(S(=O)(=O)O)cc(S(=O)(=O)O)c45)ccc3C)c2)c1 [suramin]
- receptor binding (PDGF receptor): interfere with receptor binding

Compound: neomycin
- binding of PDGF-BB to the α-receptor (PDGF α-receptor): inhibited the binding of PDGF-BB to the α-receptor
- binding of PDGF-BB to the β-receptor (PDGF β-receptor): did not inhibit binding to the β-receptor

- IC50 (PDGFR [3]): 35 µM
Compound: c1ccc(-c2cnc3ncccc3n2)cc1 [Compound G16]
- CC50 (U1242 cells [1]): > 100 µM

Compound: O=C(c1ccccc1)c1ccc2ncc(-c3ccccc3)nc2c1 [Compound G21]
- IC50 (PDGF-R (U1242); [7]): 6 µM
- IC50 (PDGF-R (U1242); read-out: U1242 KINASE IC50): > 50 µM
- mortality ([2]; 40 mg/kg): 0%
- C6 in vivo EFFICACY (C6 glioma cells; at 40 mg/kg): no effect
- IC50 (C6 cells): > 12 µM
- IC50 (PDGFR [3]): 6 µM
- CC50 (U1242 cells [5]): > 100 µM
- LD10 (LD10): > 200 mg/kg
